Entries after “also recorded” stand apart in the source; their conditions may differ.
What was measured:
iNOS [1] = test: iNOS expression in stimulated rat chondrosarcomas; assay type: cell-based
Description: NSAIDs were tested in: (FIG. 5A) rat chondrosarcomas stimulated with LPS, and (FIG. 5B) unstimulated OA cartilage (n=3).

iNOS [2] = test: Specific activity of iNOS in cell-free extracts of RAW 264.7 cells exposed to drug during LPS induction; assay type: cell-based, murine
Description: Assays for iNOS in Cell-Free Extracts. […] The reaction mixture for iNOS assay (in cell-free extracts) consists of Tris […] (pH 7.8); BSA 1 mg/ml; DTT 1 mM; CaCl2, 2 mM; FAD 10 μM; BH4 10 μM; L-arginine 30 μM; NADPH 1 mM. The assay mixture for cNOS consists of Tris 50 mM (pH 7.8); L-arginine 50 μM; calmodulin 10 μg/ml; BH4 10 μM; CaCl2 2 mM; NADPH 100 μM. RAW 264.7 cells were induced with LPS in the presence and absence of NSAIDs for 16-18 h. […] Cells were re-pelleted at 4° C. and resuspended in Tris buffer (10 mM, pH 7.4) containing 1 mg/ml each chymostatin, antipain, leupeptin and pepstatin, 1 mM DTT and 1 mM PMSF. Cells were lysed in a Polytron PT 1200 homogenizer (Kinematica AG, Switzerland) after 3 cycles of rapid freeze-thawing. The lysate was centrifuged at 16,000 rpm for 60 min at 4° C., and the supernatants were used as cell-free extracts. […] After 20 min the assays were terminated by heating the reaction mixture at 90° C. for 5 min. The precipitates were removed by centrifuging at 15,000 rpm for 20 min. Ten microliters (≈50,000 cpm) of the supernatant was spotted on activated Avicel TLC plates (Analtech, Newark, Del.). The TLC plates were developed in a solvent system consisting of ethanol:water:ammonia (80:16:4). Quantitation of the spot for L-[^3 3H]-citrulline was performed by a Bioscan System 200 Imaging Scanner. A phosphoimager can also be used for such quantification.
(§1) The specific activity of iNOS was determined in cellfre
(§2) extracts at a given time period as described. The nitrite and specific

NF-κB = settings: cited from earlier work
iNOS [3] = test: Nitrite accumulation in LPS-stimulated RAW 264.7 murine macrophages (Griess method); assay type: cell-based; settings: for further inhibition of nitrite accumulation above that observed at 3 mM: suprapharmacological
Description: Effects of NSAIDs on Nitrite Accumulation. […] The expression and activity of iNOS were monitored by estimation of the stable end-product: nitrites.
concentrations of NSAIDs for 2 h followed by addition of 100 ng/ml of LPS
After 16-18 h of incubation, the medium was used to estimate the
accumulation of nitrite by the Greiss method (Green et al., Anal Biochem.
as §1, §2
activity data are representative of mean ± SD value, as determined by
student t test, for 10 and 4 independent experiments, respectively. The p
values described are compared with LPSstimulated cells. […]

OA-NOS [4] = test: Sensitivity of OA-NOS to agents (Table 3 comparison)
COX-2 = molecular target: T1, COX-2 (Mus musculus, UniProt Q05769); assay type: cell-based, murine; settings: 3 mM
T1 construct: Cells were incubated with LPS (1 μg/ml) for 16 h to induce COX-2; endogenous in cells; host or cells: RAW 264.7 murine macrophages, LPS-induced
T1 sequence (Q05769 18-604): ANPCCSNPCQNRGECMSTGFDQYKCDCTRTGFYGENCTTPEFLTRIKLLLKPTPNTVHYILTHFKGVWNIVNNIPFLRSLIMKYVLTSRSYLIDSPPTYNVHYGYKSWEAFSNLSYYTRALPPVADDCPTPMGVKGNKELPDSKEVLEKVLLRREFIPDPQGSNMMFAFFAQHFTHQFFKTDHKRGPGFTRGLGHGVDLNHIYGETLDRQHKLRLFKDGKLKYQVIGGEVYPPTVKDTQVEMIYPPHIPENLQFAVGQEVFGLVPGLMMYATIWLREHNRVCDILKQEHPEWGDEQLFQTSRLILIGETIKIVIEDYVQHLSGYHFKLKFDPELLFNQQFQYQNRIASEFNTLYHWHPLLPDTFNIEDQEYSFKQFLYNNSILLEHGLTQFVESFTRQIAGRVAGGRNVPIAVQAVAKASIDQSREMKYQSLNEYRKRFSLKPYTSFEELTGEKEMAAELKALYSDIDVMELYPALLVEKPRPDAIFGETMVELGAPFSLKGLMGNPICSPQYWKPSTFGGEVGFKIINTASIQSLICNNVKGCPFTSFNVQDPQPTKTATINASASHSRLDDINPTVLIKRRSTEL

OA-NOS [5] = test: Nitrite release by OA-affected articular cartilage, ex vivo organ culture; assay type: cell-based, human
iNOS [6] = test: Radiolabelling of iNOS by acetyl-labelled aspirin in RAW 264.7 cells, SDS-PAGE; assay type: biochemical, murine; settings: radiolabelled aspirin, 30 minutes
Description: Unstimulated and LPS stimulated murine macrophage (RAW 264.7) cells were incubated with radiolabelled aspirin (acetyl group labelled) as described by Lecomte et al. (J. Biol. Chem. 269:13207-13215, 1994). After 30 minutes, the extracts were run on an SDS-PAGE gel and analyzed by phosphoimager. […] The intensity of label (^14 C) is increased, where iNOS synthesis was induced by LPS.
However, the possibility that inhibition of iNOS catalytic activity may be due to acetylation of cofactors/precursors of iNOS has not been ruled out.

Q: For CC(=O)Oc1ccccc1C(=O)O [Aspirin, aspirin], which “inhibition of iNOS expression in rat chondrosarcomas” value (iNOS [1]; 72 h, added 1 h prior to cytokines) is on record?
A: Its value is ~ 57%.

Q: And the “effect on iNOS in rat chondrosarcomas” value (iNOS [1]; LPS/cytokine-stimulated, L-NMMA 500 μM, indomethacin 20 μM)?
A: Its value is “significant inhibition of iNOS”.

Q: And the “Specific activity of iNOS” value (iNOS [2]; 1 mM)?
A: The value was 271.7 ± 17.2 pmol/min/mg protein.

Q: And the “Specific activity of iNOS” value (iNOS [2]; 2 mM)?
A: Its value is 231.3 ± 29.8 pmol/min/mg protein.

Q: And the “Specific activity of iNOS” value (iNOS [2]; 3 mM)?
A: The value was 162.3 ± 25.9 pmol/min/mg protein.

Q: And the “Specific activity, % inhibition” value (iNOS [2]; 3 mM, cell-free extracts, 16 h)?
A: The value was 47%.

Q: What about the inhibition at 3000 µM (iNOS [2]; Mus musculus, RAW264.7, 16 h, read-out: Specific activity, % inhibition, 3 mM, cell-free extracts, 16 h) of the same compound?
A: Its inhibition at 3000 µM is 48%.

Q: What about the IC50 (iNOS [2]; Mus musculus, RAW264.7, read-out: IC50, specific enzyme activity of iNOS) of the same compound?
A: Its IC50 is 3 mM.

Q: And the inhibition at 1000 µM (iNOS [2]; Mus musculus, RAW264.7, read-out: Specific activity, % inhibition, 1 mM)?
A: Its inhibition at 1000 µM is 12%.

Q: And the inhibition at 2000 µM (iNOS [2]; Mus musculus, RAW264.7, read-out: Specific activity, % inhibition, 2 mM)?
A: Its inhibition at 2000 µM is 25%.

Q: And the “activation of NF-κB” value (NF-κB; 5-20 mM, suprapharmacological)?
A: The value was “interfere in the activation of NF-κB”.

Q: And the “NF-κB-dependent transcription” value (NF-κB; aspirin 3 mM, sodium salicylate 5 mM, luciferase reporter)?
A: Its value is “inhibit NF-κB-dependent transcription”.

Q: And the “NF-κB activation, gel shift assays” value (NF-κB; same concentrations (aspirin 3 mM; sodium salicylate 5 mM))?
A: The value was “no significant effect on NF-κB activation”.

Q: And the “Nitrite released, Nitrite” value (iNOS [3]; 1 mM, LPS 100 ng/ml, 16-18 h)?
A: The value was 26.6 ± 4.3 µM.

Q: What about the “Nitrite released, Nitrite” value (iNOS [3]; 2 mM, LPS 100 ng/ml, 16-18 h) of the same compound?
A: The value was 22.9 ± 5.3 µM.

Q: And the “Nitrite released, Nitrite” value (iNOS [3]; 3 mM, LPS 100 ng/ml, 16-18 h)?
A: The value was 20.3 ± 3.9 µM.

Q: And the “further inhibition of nitrite accumulation above that observed at 3 mM” value (iNOS [3]; 5 mM)?
A: The value was 50%.

Q: And the “further inhibition of nitrite accumulation above that observed at 3 mM” value (iNOS [3]; 10 mM)?
A: Its value is 80%.

Q: What about the inhibition at 1000 µM (iNOS [3]; Mus musculus, RAW264.7, read-out: Nitrite released, % inhibition, 1 mM, LPS 100 ng/ml, 16-18 h) of the same compound?
A: The inhibition at 1000 µM was 10%.

Q: And the inhibition at 2000 µM (iNOS [3]; Mus musculus, RAW264.7, read-out: Nitrite released, % inhibition, 2 mM, LPS-stimulated, 16-18 h)?
A: The inhibition at 2000 µM was 22%.

Q: And the inhibition at 3000 µM (iNOS [3]; Mus musculus, RAW264.7, read-out: Nitrite released, % inhibition, 3 mM, LPS 100 ng/ml, 16-18 h)?
A: The inhibition at 3000 µM was 32%.

Q: And the “sensitivity of OA-NOS” value (OA-NOS [4])?
A: The value was “blocked; also recorded: shows sensitivity”.

Q: What about the “% inhibition of COX-2 specific activity” value (COX-2) of the same compound?
A: The value was over 75%.

Q: What about the “effect on nitrite accumulation / NOS expression in OA cartilage” value (OA-NOS [5]) of the same compound?
A: Its value is “blocked iNOS expression in OA cartilage”.

Q: And the “rank order of inhibition of spontaneous nitrite accumulation” value (OA-NOS [5])?
A: The value was “aspirin>indomethacin>sodium salicylate”.

Q: And the inhibition at 2000 µM (OA-NOS [5]; 2 mM, human osteoarthritic cartilage ex vivo, read-out: suppression of accumulation of nitrites)?
A: The inhibition at 2000 µM was at least 50%.

Q: What about the “acetylation of iNOS” value (iNOS [6]) of the same compound?
A: The value was “shows acetylation of iNOS”.

Reference: patent publication US5759836A, “Osteoarthritis-associated inducable isoform of nitric oxide synthetase” (priority 1995, dated 1998)
